# According to patent US20140303251A1, “Methods Of Treating Acute Kidney Injury With Retinoic Acid” (Beth Israel Deaconess Medical Center, Inc., priority 2011, published 2014):
# How the values were obtained:
# [1] = test system: primary cultures of renal proximal tubule epithelial cells (RPTECs); test: in vitro IRI model: primary RPTEC cultures, mineral oil overlay induced hypoxia followed by reperfusion, qPCR; format: cell-based, mice; settings: for CCL20 induction: Nur77 knockout RPTECs; for Nur77 levels (induction after ischemia-reperfusion): RPTECs, hypoxia by mineral oil overlay then reperfusion; for Nur77 levels (induction after ischemia-reperfusion) / Induction of Nr4a family members (Nor-1, Nurr1): vs vehicle; for Induction of Nr4a family members (Nor-1, Nurr1): both wild type and Nur77 knockout RPTEC cultures
# Procedure: (§1) Kidney tissues were snap frozen and stored at −80 deg C. until processing. The tissues were homogenized and total RNA was prepared using RNeasy kit (Qiagen). DNA contamination was eliminated by DNase digestion. The reverse transcribed cDNA was subjected to qPCR using a Sybr green based detection system (SA Bioscience). Relative levels of mRNA was normalized to GAPDH levels and quantified based on 2e-deltaCT method.
# Kidneys from 4-5 weeks old mice were harvested after perfusion with sterile PBS. Cortex was separated and minced into ˜1 mm3 pieces and digested using collagenase and soybean trypsin inhibitor for 30 min and 37 degC. The digested mix was spun down and filtered through 200 uM filter followed by a 70 uM filter. The tubules that are retained on the top of the 70 uM filter were collected and cultured in Renal life cell growth medium (Lifeline cell technology) on collagen coated plates. After 7 days of culturing, the cells were used for experiments. The purity of the culture was ascertained by staining for cytokeratin (Anti-cytokeratin antibody: Sigma). To induce ischemia reperfusion injury, confluent monolayer of RPTECs was overlayed with mineral oil for 1 h, followed by reperfusion with complete medium.
# Retinoic acid can antagonize Nur77 function by inhibiting its transcriptional induction, DNA binding and nuclear export^17,18. RXRs heterodimerize with Nur77 in response to cell death stimuli, promoting nuclear export and causing Bcl-2 dependent cytochrome c release and apoptosis. Ligand bound RXR inhibits Nur77 function either by retaining it in the nucleus or by inhibiting its transcription by an AP-1 dependent mechanism^18. Since Nur77 deficient mice were protected from renal IRI, whether pharmacologic antagonism of Nur77 by retinoic acid could be used to protect kidneys from acute injury was assessed. To determine whether retinoids could regulate Nur77-dependent signaling in renal epithelia, primary cultures of renal proximal tubule epithelial cells (RPTECs) were generated from either wild type or Nur77 knockout mice. RPTECs were treated with either vehicle or 9-cis-retinoic acid, and subjected to mineral oil overlay induced hypoxia, followed by reperfusion.
# renal IRI = test: renal ischemia reperfusion injury (IRI) in mice, 9-cis retinoic acid given 4 h prior; format: in vivo; settings: for BUN (serum blood urea nitrogen) / serum creatinine / tubular / renal injury score / apoptotic cells in kidney (TUNEL) / neutrophil infiltration in kidney / CXCL2 gene expression level in kidney: 10 mg/kg 4 h prior to IRI; for BUN (serum blood urea nitrogen) / serum creatinine: 24 h after IRI; for BUN (serum blood urea nitrogen) / serum creatinine / tubular / renal injury score / apoptotic cells in kidney (TUNEL) / neutrophil infiltration in kidney / CXCL2 gene expression level in kidney / Nor-1 and Nurr-1 levels in kidney / Nur77 gene expression level in kidney: vs vehicle; for BUN (serum blood urea nitrogen): P<0.0001; for serum creatinine: P<0.002; for apoptotic cells in kidney (TUNEL) / neutrophil infiltration in kidney: P<0.001; for CXCL2 gene expression level in kidney: P<0.02; for Nor-1 and Nurr-1 levels in kidney / Nur77 gene expression level in kidney: 10 mg/kg body weight 4 h prior to IRI, 24 hours after injury, qPCR; for localization pattern of Nur77: 24 h post IRI, immunochemistry
# Procedure: Male mice of age 8-10 weeks were used in this study. Animals were anesthetized using xylazine and ketamine and kept on 37° C. warming pads. The kidneys were exposed by flank incision and both kidney pedicles were clamped for 45 minutes using non-traumatic microaneurysm clamps (Roboz, Rockville, Md.). Reperfusion was confirmed visually and the incision was sutured. Body temperature of the animals was maintained at 37° C. throughout the procedure.
# 9-cis retinoic acid in DMSO was administered to animals at a dose of 10 mg/kg body weight, 4 h prior to the IRI procedure. The final concentration of DMSO was 25% (v/v). Control animals received 25% (v/v) DMSO.
# Kidneys from animals subjected to IRI were harvested. Transverse sections of the kidneys were either snap frozen in OCT or fixed in 10% formalin and processed for paraffin embedded sections. Renal morphology was assessed by PAS staining (Periodic acid-Schiff reagent). Neutrophil infiltration was assessed by staining formalin fixed paraffin embedded (FFPE) sections with anti-Ly6G (BD). Infiltrating neutrophils were counted in 3 independent HPFs (400×) per section per animal and represented as mean±SEM. Nur77 staining was carried out on FFPE sections after antigen retrievel using anti-mouse Nur77 antibody (Ebioscience). Endogenous mouse Ig was blocked using M.O.M kit from vector labs.
# Kidney cell apoptosis was assessed by TUNEL staining using ApopTag® Peroxidase In Situ Apoptosis Detection Kit (Millipore). The apoptotic index was calculated as percentage of dead cells in 3 independent 400×HPF per section per animal by, counting both stained nuclei and total nuclei.
# Serum plasma was collected 24 h after ischemia reperfusion and stored at −80 deg C. until further processing. Serum creatinine was quantified using QuantiChrom™ Creatinine Assay Kit (Bioassays systems). Serum blood urea nitrogen levels were measured using Infinity Urea liquid stable reagent (Thermo fisher).
# as §1
# [2] = Nur77+/+ (wild type) RPTECs, listed as 9-cis-RA
smiles,measurement,setting,value
CC1=C(/C=C/C(C)=C\C=C\C(C)=C\C(=O)O)C(C)(C)CCC1 [9-cis-retinoic acid],CCL20 levels,[1]; Nur77+/+ (wild type) RPTECs,very substantially reduced
same,Induction of CXCL2,[1]; Nur77+/+ (wild type) RPTECs,significantly attenuated
same,CCL20 levels,[1]; [2],reduced
same,Induction of CXCL2,[1]; [2],reduced
same,CCL20 induction,[1],no further effect
same,CCL20 induction,[1]; listed as 9-cis-RA,did not substantially reduce the expression level further
same,Induction of CXCL2,[1]; RPTECs from Nur77 knockout kidneys,no further inhibitory effect
same,Induction of CXCL2,"[1]; RPTECs from Nur77 knockout kidneys, listed as 9-cis-RA",did not substantially reduce the expression level further
same,Nur77 levels (induction after ischemia-reperfusion),[1],reduced by about half
same,Nur77 levels (induction after ischemia-reperfusion),[1]; listed as 9-cis-RA,attenuated the induction
same,"Induction of Nr4a family members (Nor-1, Nurr1)",[1],inhibited
same,"Induction of Nr4a family members (Nor-1, Nurr1)",[1]; listed as 9-cis-RA,attenuated the induction
same,BUN (serum blood urea nitrogen),renal IRI,reduced
same,BUN (serum blood urea nitrogen),renal IRI; listed as 9-cis-RA,significantly lower
same,serum creatinine,renal IRI,reduced
same,serum creatinine,renal IRI; listed as 9-cis-RA,significantly lower
same,tubular / renal injury score,renal IRI,improved
same,apoptotic cells in kidney (TUNEL),renal IRI,significantly less
same,neutrophil infiltration in kidney,renal IRI,much less
same,apoptotic cells in kidney (TUNEL),renal IRI; listed as 9-cis-RA,fewer apoptotic cells
same,neutrophil infiltration in kidney,renal IRI; listed as 9-cis-RA,fewer
same,CXCL2 gene expression level in kidney,renal IRI,Reduced
same,CXCL2 gene expression level in kidney,renal IRI; listed as 9-cis-RA,greatly diminished
same,tubular / renal injury score,renal IRI; listed as 9-cis-RA,less injured
same,Nor-1 and Nurr-1 levels in kidney,renal IRI,dramatically lower induction
same,Nur77 gene expression level in kidney,renal IRI,dramatically lower induction
same,Nor-1 and Nurr-1 levels in kidney,renal IRI; listed as 9-cis-RA,reduced
same,Nur77 gene expression level in kidney,renal IRI; listed as 9-cis-RA,significantly diminished
same,localization pattern of Nur77,renal IRI,cytoplasmic
same,localization pattern of Nur77,renal IRI; listed as 9 cis-RA,unaltered
same,overall level of Nur77 protein expression in kidney (immunochemistry),"renal IRI; mice that received 9-cis-retinoic acid, after renal IRI",dramatically reduced
same,transcript level of HIF-1 alpha,renal IRI; treatment prior to the induction of IRI,unchanged
